The NIST ThermoML archive (doi:10.1016/j.jct.2008.09.002)

Key:
[1] = molar heat capacity at constant pressure; xn = mol fraction of the nth substance listed; conditions: 101.3 kPa, Liquid, Small sample (50 mg) DSC
[2] = xn = mol fraction of the nth substance listed; conditions: 101.3 kPa, Liquid, Vibrating tube method

CCCCn1cc[n+](C)c1.COS(=O)(=O)[O-] [1-butyl-3-methylimidazolium methyl sulfate] + C[N+](=O)[O-]
Conditions	mass density, [2] [kg/m3]	molar heat capacity at constant pressure, [1] [J/K/mol]
293.15 K, x1 = 0.0522	1158.1	122.1
293.15 K, x1 = 0.1	1168.5	136.5
293.15 K, x1 = 0.1966	1182.1	166.4
293.15 K, x1 = 0.3059	1191.3	200.5
293.15 K, x1 = 0.4061	1196.9	231.4
293.15 K, x1 = 0.5025	1200.8	261.5
293.15 K, x1 = 0.5889	1203.5	288
293.15 K, x1 = 0.6844	1205.9	317.2
293.15 K, x1 = 0.7832	1207.8	347.4
293.15 K, x1 = 0.8654	1209.1	372.6
293.15 K, x1 = 0.9289	1210	392.1
298.15 K, x1 = 0.0522	1152.1	122.4
298.15 K, x1 = 0.1	1163	137
298.15 K, x1 = 0.1966	1177.3	167
298.15 K, x1 = 0.3059	1186.9	201.3
298.15 K, x1 = 0.4061	1192.8	232.5
298.15 K, x1 = 0.5025	1196.9	262.7
298.15 K, x1 = 0.5889	1199.8	289.4
298.15 K, x1 = 0.6844	1202.2	318.9
298.15 K, x1 = 0.7832	1204.3	349.2
298.15 K, x1 = 0.8654	1205.7	374.6
298.15 K, x1 = 0.9289	1206.7	394.3
303.15 K, x1 = 0.0522	1146.1	122.8
303.15 K, x1 = 0.1	1157.5	137.5
303.15 K, x1 = 0.1966	1172.4	167.7
303.15 K, x1 = 0.3059	1182.6	202.3
303.15 K, x1 = 0.4061	1188.7	233.6
303.15 K, x1 = 0.5025	1193	263.9
303.15 K, x1 = 0.5889	1196	290.9
303.15 K, x1 = 0.6844	1198.6	320.6
303.15 K, x1 = 0.7832	1200.8	351.1
303.15 K, x1 = 0.8654	1202.3	376.7
303.15 K, x1 = 0.9289	1203.3	396.5
308.15 K, x1 = 0.0522	1140.1	123.3
308.15 K, x1 = 0.1	1152	138.1
308.15 K, x1 = 0.1966	1167.6	168.4
308.15 K, x1 = 0.3059	1178.2	203.2
308.15 K, x1 = 0.4061	1184.7	234.8
308.15 K, x1 = 0.5025	1189.2	265.1
308.15 K, x1 = 0.5889	1192.3	292.4
308.15 K, x1 = 0.6844	1195	322.2
308.15 K, x1 = 0.7832	1197.4	352.9
308.15 K, x1 = 0.8654	1199	378.7
308.15 K, x1 = 0.9289	1200	398.7
313.15 K, x1 = 0.0522	1134.1	123.8
313.15 K, x1 = 0.1	1146.5	138.7
313.15 K, x1 = 0.1966	1162.8	169.1
313.15 K, x1 = 0.3059	1173.9	204.1
313.15 K, x1 = 0.4061	1180.6	235.9
313.15 K, x1 = 0.5025	1185.3	266.3
313.15 K, x1 = 0.5889	1188.6	293.8
313.15 K, x1 = 0.6844	1191.5	323.9
313.15 K, x1 = 0.7832	1193.9	354.7
313.15 K, x1 = 0.8654	1195.6	380.8
313.15 K, x1 = 0.9289	1196.6	400.8
318.15 K, x1 = 0.0522	1128.1	124.2
318.15 K, x1 = 0.1	1141	139.1
318.15 K, x1 = 0.1966	1158	169.7
318.15 K, x1 = 0.3059	1169.5	205
318.15 K, x1 = 0.4061	1176.6	237
318.15 K, x1 = 0.5025	1181.5	267.4
318.15 K, x1 = 0.5889	1184.9	295.3
318.15 K, x1 = 0.6844	1187.9	325.6
318.15 K, x1 = 0.7832	1190.4	356.5
318.15 K, x1 = 0.8654	1192.2	382.8
318.15 K, x1 = 0.9289	1193.3	403
